# Earlier results, collected in patent US20230218659A1, “Selenium-Based Compositions and Therapeutic Methods” (Hess Pharmaceuticals, Inc, priority 2020, published 2023).
# Details: 200 µg/day selenium with or without 400 IU/day vitamin E; 35,533 men aged 50 years or older; after 5.5 years
smiles,measurement,value
[Se] [selenium],association between prostate cancer risk and supplementation,no association
